Measurements from patent US6537976B1, “Dialysis solutions containing water soluble vitamins and nutrients” (priority 1997, dated 2003).
Where two headings read alike, the source gives them in different places.

Legend:
[1] = cited from earlier work
plasma proteins = details: subjects with normal kidney function; effects of uremia not examined; cited from earlier work
[2] = cited from earlier work; remark: listed apart in the source
[3] = In vitro hemodialysis of uremic plasma using dialysate solutions with and without added vitamins
Method: In the following experiment uremic plasma was dialyzed against dialysate solutions containing different concentrations of vitamins, and the total plasma levels of vitamins after dialysis was measured.
Plasma obtained from a uremic subject undergoing plasmapharesis was pooled and samples were taken for estimation of baseline vitamin levels. The total volume of 2.7 liters was divided into three equal aliquots of 900 ml each. Hemodialysis was performed on each aliquot of plasma using a F-60 polysulfone dialyzer (Fresenius Inc., USA). The plasma flow rate was 350 ml/min and the dialysate flow rate was 500 ml/min.
In the first experiment, vitamins were not added to the dialysate. In the second experiment, vitamins were added to the dialysate at a concentration that was close to the upper limit of normal, to simulate the maintenance of physiologic levels. In the third experiment, vitamins were added to the dialysate at a concentration that was 10 times that in the second experiment, with the aim of achieving supratherapeutic levels.

[4] = cited from earlier work; remark: listed apart in the source
[5] = subjects with normal renal function; cited from earlier work
[6] = vitamin in the dialysate 0 μg/L
[7] = vitamin in the dialysate 15 μg/L
[8] = vitamin in the dialysate 150 μg/L
[9] = vitamin in the dialysate 60 μg/L
[10] = vitamin in the dialysate 600 μg/L

In the case of cyanocobalamin [Vitamin B12], the Plasma concentration in hemodialysis patients receiving supplementation in high doses ([1]; vitamin B12, Bostom et al., predialysis, mean ± SD) is listed as 1.3 ± 0.4 ng/mL, the “Fraction of the plasma content that is protein bound (binding in words)” value (plasma proteins) is listed as “Protein bound” and the solubility in water [2] is listed as “soluble in water”.

In the case of Cc1ncc(CO)c(CO)c1O.Cl [pyridoxine hydrochloride], the “effect of addition to the dialysate on plasma PLP concentration” value ([3]; assay specific for esters such as PLP, does not measure pyridoxine) is reported as “did not result in an increase in PLP concentration”.

For Nc1nc2ncc(CNc3ccc(C(=O)N[C@@H](CCC(=O)O)C(=O)O)cc3)nc2c(=O)[nH]1 [Folic acid, folic acid], the “Plasma concentration in hemodialysis patients receiving supplementation in high doses” value ([1]; 15 mg folic acid daily for 8 weeks, predialysis, mean ± SD) is listed as 927 ± 575 μg/L with 15, the “Plasma concentration of the vitamin after dialysis for 0 min (Baseline)” value (shortened to “Plasma concentration of the vitamin … (Baseline)”) [3, 6] is listed as 5.8 ng/mL and the “Plasma concentration of the vitamin after dialysis for 45 min” value (“Plasma concentration … for 45 min” below) [3, 6] is listed as 1.7 ng/mL. For the same compound, the “Plasma concentration of the vitamin after dialysis for 90 min” value (“Plasma concentration … for 90 min” for short) [3, 6] was 3.3 ng/mL, the “Plasma concentration of the vitamin … (Baseline)” value [3, 7] was 5.8 ng/mL and the “Plasma concentration … for 45 min” value [3, 7] was 32.2 ng/mL. The “Plasma concentration … for 90 min” value [3, 7] was 39.8 ng/mL, the “Plasma concentration of the vitamin … (Baseline)” value [3, 8] was 5.8 ng/mL and the “Plasma concentration … for 45 min” value [3, 8] was 256.5 ng/mL. The “Plasma concentration … for 90 min” value [3, 8] was 272.2 ng/mL.

For O=C1O[C@H]([C@@H](O)CO)C(O)=C1O [Ascorbic acid (vit C), ascorbic acid], the “Plasma concentration in hemodialysis patients receiving supplementation in high doses” value ([1]; 500 mg ascorbic acid/day for 2 weeks, mean ± SE) is given as 28 ± 2 mg/L (mean ± SE), and the “Plasma concentration in hemodialysis patients receiving supplementation in high doses, Range” value ([1]; 500 mg ascorbic acid/day for 2 weeks, range) is given as “Range: 15-37 mg/L,”.

In the case of Cc1ncc(COP(=O)(O)O)c(C=O)c1O [Pyridoxal 5′-phosphate (vit B6), pyridoxal 5-phosphate], the “Fraction of the plasma content that is protein bound (binding in words)” value (plasma proteins) is given as “albumin”.

In the case of C[N+](C)(C)C[C@H](O)CC(=O)[O-] [L-carnitine], the “Free carnitine plasma concentration in hemodialysis patients receiving supplementation in high doses” value ([1]; 20 mg/Kg L-carnitine intravenously three times a week following hemodialysis for 6 months, mean ± SE) is listed as “Free carnitine 250 ± 11 μmol/L”, the “Fraction of the plasma content that is protein bound (binding in words)” value (plasma proteins) is listed as “not bound” and the “patients showing global improvement in clinical status” value ([4]; 20 mg/kg intravenous after each hemodialysis session for 6 months, control group 18%) is listed as 50%. The “clinical effects of carnitine administration” value ([4]; chronic hemodialysis patients) was “improvement in intradialytic hypotension, muscle cramps, exercise capacity, a sense of well being”, the “fraction of the administered dose excreted in the urine” value [5] was 58-65% and the solubility in water [2] was “water soluble”.

In the case of Cc1ncc(C[n+]2csc(CCO)c2C)c(N)n1 [Thiamine, thiamine], the “Whole blood thiamine in hemodialysis patients receiving supplementation in high doses” value ([1]; 600-900 mg thiamine per week, predialysis, mean ± SD) is listed as 50 ± 12 µg/L, the “Fraction of the plasma content that is protein bound (binding in words)” value (plasma proteins) is listed as “albumin” and the “Plasma concentration of the vitamin … (Baseline)” value [3, 6] is listed as 17 ng/mL. For the same compound, the “Plasma concentration … for 90 min” value [3, 6] was 3.6 ng/mL, the “Plasma concentration of the vitamin … (Baseline)” value [3, 9] was 17 ng/mL and the “Plasma concentration … for 90 min” value [3, 9] was 72 ng/mL. The “Ratio of Plasma to dialysate at the end of dialysis (VP/VD)” value [3, 9] was 1.2, the “Plasma concentration of the vitamin … (Baseline)” value [3, 10] was 17 ng/mL and the “Plasma concentration … for 90 min” value [3, 10] was over 100 ng/mL.
